Experimental data published in patent US4415567A, “7α-Methoxycephalosporin derivatives, and antibacterial drugs containing the same” (Eisai Co., Ltd., priority 1980, dated 1983).
In brackets after ≈: the same amount, converted by molar mass. Where a name gives a salt, the structure may show the parent alone.

Assays:
[1] = acute toxicity, LD50 (mouse, oral); conditions: in vivo
Description: The acute toxicity values [LD50 (mouse, oral)] for the following compounds of this invention were over 5 g/kg: […]

[2] = system: Klebsielle pneumoniae EK-6; experiment: MIC, standard agar dilution method, Klebsielle pneumoniae EK-6; assay type: cell-based; conditions: Klebsielle pneumoniae EK-6; Mueller Hinton agar, 18 hours, 37° C.; read-out: MIC
Description: (§1) Minimal inhibitory concentration (MIC) was determined by the standard agar dilution method of the Japan Society of Chemotherapy.
(§2) Compounds were dissolved in appropriate solvents (sterilized water for sodium salts and acetone-water [1:1] for free acids) and serial two-fold dilutions were made. Sodium salt of Cefazolin was chosen as the control compound.
(§3) One-ml aliquots of each dilution were mixed with 9 ml of Mueller Hinton gar in petri-dishes to make agar plates containing the compound at serially diluted concentrations. After agar hardened, plates were put in an incubator at 37° C. for 1.5-2 hours with the lids slightly open to evaporate acetone off the plates.
(§4) Test organisms were grown for 18 hours at 37° C. in Trypticase Soy broth and diluted in saline to approximately 10^6 colony forming units per ml. A loopful of each cell suspension was applied on the agar plate mentioned above and the plates were incubated for 18 hours at 37° C. before MIC was determined.
(§5) The results are shown in Table 2, wherein the compound of Example 5 was selected and used in a form of free carboxylic acid as set forth in the Example 5, Item (a).

[3] = system: Escherichia coli NIHJ; experiment: MIC, standard agar dilution method, Escherichia coli NIHJ; assay type: cell-based; conditions: Escherichia coli NIHJ; Mueller Hinton agar, 18 hours, 37° C.; read-out: MIC
Description: as §1, §2, §3, §4, §5

[4] = system: Proteus bulgaris E-18; experiment: MIC, standard agar dilution method, Proteus bulgaris E-18; assay type: cell-based; conditions: Mueller Hinton agar, 18 hours, 37° C.
Description: as §1, §2, §3, §4, §5

[5] = system: Pseudomonas aeruginosa EP-172; experiment: MIC, standard agar dilution method, Pseudomonas aeruginosa EP-172; assay type: cell-based; conditions: EP172, Mueller Hinton agar, 18 hours, 37° C.
Description: as §1, §2, §3, §4, §5

[6] = system: Proteus morganii EP-14; experiment: MIC, standard agar dilution method, Proteus morganii EP-14; assay type: cell-based; conditions: Morganella morganii, EP14, Mueller Hinton agar, 18 hours, 37° C.
Description: as §1, §2, §3, §4, §5

[7] = system: Serratia marcescens ES-75; experiment: MIC, standard agar dilution method, Serratia marcescens ES-75; assay type: cell-based; conditions: ES75, Mueller Hinton agar, 18 hours, 37° C.
Description: as §1, §2, §3, §4, §5

[8] = system: Staphylococcus aureus 209-P; experiment: MIC, standard agar dilution method, Staphylococcus aureus 209-P; assay type: cell-based; conditions: Mueller Hinton agar, 18 hours, 37° C.
Description: as §1, §2, §3, §4, §5

Row | Structure (SMILES) | MIC [2] | MIC [3] | MIC [4] | MIC [5] | MIC [6] | MIC [7] | MIC [8] | LD50 [1]
1 | CO[C@@]1(NC(=O)[C@H](NC(=O)c2coc3cc(O)c(O)cc3c2=O)c2ccc(O)cc2)C(=O)N2C(C(=O)O)=C(CSc3nnc(C)s3)CS[C@@H]21 [7β-[D-2-(6,7-Dihydroxychromone-3-carboxamido)-2-(4-hydroxyphenyl)acetamido]-7α-methoxy-3-[5-methyl-2-(1,3,4-thiadiazolyl)]thiomethyl-3-cephem-4-carboxylic acid] | – | – | – | – | – | – | – | > 5000 mg/kg
2 | CO[C@@]1(NC(=O)[C@H](NC(=O)c2coc3cc(O)c(O)cc3c2=O)c2ccc(O)cc2)C(=O)N2C(C(=O)O)=C(CSc3nnnn3C)CS[C@@H]21 [Example 3, 7β-[D-2-(6,7-Dihydroxychromone-3-carboxamido)-2-(4-hydroxyphenyl)acetamido]-7α-methoxy-3-(1-methyl-5-tetrazolyl)thiomethyl-3-cephem-4-carboxylic acid] | ≤ 0.1 µg/mL | 0.4 µg/mL (≈ 0.562 µM) | 0.8 µg/mL (≈ 1.12 µM) | 0.8 µg/mL (≈ 1.12 µM) | 3.13 µg/mL (≈ 4.4 µM) | ≤ 0.1 µg/mL | 3.13 µg/mL (≈ 4.4 µM) | > 5000 mg/kg
3 | CO[C@@]1(NC(=O)[C@H](NC(=O)c2coc3cc(O)c(O)cc3c2=O)c2ccc(O)cc2)C(=O)N2C(C(=O)O)=C(CSc3nnnn3CC(=O)O)CS[C@@H]21 [Example 16, 7β-[D-2-(6,7-Dihydroxychromone-3-carboxamido)-2-(4-hydroxyphenyl)acetamido]-7α-methoxy-3-1-carboxymethyl-5-tetrazolyl)thiomethyl-3-cephem-4-carboxylic acid disodium salt] | – | – | – | – | – | – | – | > 5000 mg/kg
4 | CCOC(=O)Oc1cc2occ(C(=O)N[C@@H](C(=O)N[C@]3(OC)C(=O)N4C(C(=O)O)=C(CSc5nnnn5CC(=O)OC)CS[C@@H]43)c3ccc(O)cc3)c(=O)c2cc1OC(=O)OCC [Example 20, 7β-[D-2-(6,7-Bis(ethoxycarbonyloxy)chromone-3-carboxamido)-2-(4-hydroxyphenyl)acetamido]-7α-methoxy-3-(1-methoxycarbonylmethyl-5-tetrazolyl)thiomethyl-3-cephem-4-carboxylic acid] | ≤ 0.1 µg/mL | 3.13 µg/mL (≈ 3.43 µM) | 0.8 µg/mL (≈ 0.875 µM) | 0.4 µg/mL (≈ 0.438 µM) | 6.25 µg/mL (≈ 6.84 µM) | 0.2 µg/mL (≈ 0.219 µM) | 6.25 µg/mL (≈ 6.84 µM) | > 5000 mg/kg
5 | CO[C@@]1(NC(=O)[C@H](NC(=O)c2coc3cc(OC(=O)OCC(Cl)(Cl)Cl)c(OC(=O)OCC(Cl)(Cl)Cl)cc3c2=O)c2ccc(O)cc2)C(=O)N2C(C(=O)O)=C(CSc3nnnn3C)CS[C@@H]21 [Example 23, 7β-[D-2-(6,7-Bis(2,2,2-trichloroethoxycarbonyloxy)chromone-3-carboxamido)-2-(4-hydroxyphenyl)-acetamido]-7α-methoxy-3-(1-methyl-5-tetrazolyl)thiomethyl-3-cephem-4-carboxylic acid] | ≤ 0.1 µg/mL | 6.25 µg/mL (≈ 5.88 µM) | 0.8 µg/mL (≈ 0.753 µM) | 0.8 µg/mL (≈ 0.753 µM) | 6.25 µg/mL (≈ 5.88 µM) | 0.2 µg/mL (≈ 0.188 µM) | 3.13 µg/mL (≈ 2.95 µM) | > 5000 mg/kg
6 | CO[C@@]1(NC(=O)[C@H](NC(=O)c2coc3cc(OC(=O)OCC(Cl)(Cl)Cl)c(OC(=O)OCC(Cl)(Cl)Cl)cc3c2=O)c2ccccc2)C(=O)N2C(C(=O)O)=C(COC(C)=O)CS[C@@H]21 [Example 24, 7β-[D-2-(6,7-Bis(2,2,2-trichloroethoxy-carbonyloxy)chromon-3-carboxamido)2-phenylacetamido]-7α-methoxy-3-acetoxymethyl-3-cephem-4-carboxylic acid] | ≤ 0.1 µg/mL | 12.5 µg/mL (≈ 12.6 µM) | 3.13 µg/mL (≈ 3.16 µM) | 1.56 µg/mL (≈ 1.58 µM) | 25 µg/mL (≈ 25.2 µM) | 0.8 µg/mL (≈ 0.808 µM) | 6.25 µg/mL (≈ 6.31 µM) | –
7 | CO[C@@]1(NC(=O)[C@H](NC(=O)c2coc3cc(OC(=O)OCC(Cl)(Cl)Cl)c(OC(=O)OCC(Cl)(Cl)Cl)cc3c2=O)c2ccc(O)cc2)C(=O)N2C(C(=O)O)=C(COC(C)=O)CS[C@@H]21 [Example 25, 7β-[D-2-(6,7-Bis(2,2,2-trichloroethoxycarbonyloxy)chromone-3-carboxamido)-2-(4-hydroxyphenyl)acetamido]-7α-methoxy-3-acetoxymethyl-3-cephem-4-carboxylic acid] | ≤ 0.1 µg/mL | 12.5 µg/mL (≈ 12.4 µM) | 3.13 µg/mL (≈ 3.11 µM) | 0.8 µg/mL (≈ 0.795 µM) | 25 µg/mL (≈ 24.8 µM) | 0.8 µg/mL (≈ 0.795 µM) | 3.13 µg/mL (≈ 3.11 µM) | –
8 | COC(=O)Cn1nnnc1SCC1=C(C(=O)O)N2C(=O)[C@](NC(=O)[C@H](NC(=O)c3coc4cc(OC(=O)OCC(Cl)(Cl)Cl)c(OC(=O)OCC(Cl)(Cl)Cl)cc4c3=O)c3ccc(O)cc3)(OC)[C@H]2SC1 [Example 26, 7β-[D-2-(6,7-Bis(2,2,2-trichloroethoxycarbonyloxy)chromone-3-carboxamido)-2-(4-hydroxyphenyl)acetamido]-7α-methoxy-3-(1-methoxycarbonylmethyl-5-tetrazolyl)thiomethyl-3-cephem-4-carboxylic acid] | ≤ 0.1 µg/mL | 6.25 µg/mL (≈ 5.58 µM) | 0.8 µg/mL (≈ 0.714 µM) | 1.56 µg/mL (≈ 1.39 µM) | 6.25 µg/mL (≈ 5.58 µM) | 0.2 µg/mL (≈ 0.178 µM) | 12.5 µg/mL (≈ 11.2 µM) | –
9 | CCOC(=O)Oc1cc2occ(C(=O)N[C@@H](C(=O)N[C@]3(OC)C(=O)N4C(C(=O)O)=C(CSc5nnnn5CC(=O)O)CS[C@@H]43)c3ccc(O)cc3)c(=O)c2cc1OC(=O)OCC [Example 27, 7β-[D-2-(6,7-Bis(ethoxycarbonyloxy)chromone-3-carboxamido)-2-(4-hydroxyphenyl)acetamido]-7α-methoxy-3-(1-carboxymethyl-5-tetrazolyl)thiomethyl-3-cephem-4-carboxylic acid] | ≤ 0.1 µg/mL | 3.13 µg/mL (≈ 3.48 µM) | 0.8 µg/mL (≈ 0.889 µM) | 0.8 µg/mL (≈ 0.889 µM) | 6.25 µg/mL (≈ 6.95 µM) | 0.2 µg/mL (≈ 0.222 µM) | 3.13 µg/mL (≈ 3.48 µM) | –

Continued, in another order:

Row | MIC [2] | MIC [3] | MIC [4] | MIC [5] | MIC [6] | MIC [7] | MIC [8] | Structure (SMILES) | LD50 [1]
10 | ≤ 0.1 µg/mL | 3.13 µg/mL (≈ 4.06 µM) | 1.56 µg/mL (≈ 2.02 µM) | 0.8 µg/mL (≈ 1.04 µM) | 12.5 µg/mL (≈ 16.2 µM) | 0.4 µg/mL (≈ 0.518 µM) | 3.13 µg/mL (≈ 4.06 µM) | CO[C@@]1(NC(=O)[C@H](NC(=O)c2coc3cc(O)c(O)cc3c2=O)c2ccc(O)cc2)C(=O)N2C(C(=O)O)=C(CSc3nnc(CC(=O)O)s3)CS[C@@H]21 [Example 28, 7β-[D-2-(6,7-Dihydroxychromone-3-carboxamido)-2-(4-hydroxyphenyl)acetamido]-7α-methoxy-3-[5-carboxymethyl-2-(1,3,4-thiadiazolyl)]thiomethyl-3-cephem-4-carboxylic acid] | –
11 | ≤ 0.1 µg/mL | 12.5 µg/mL (≈ 16.5 µM) | 3.13 µg/mL (≈ 4.14 µM) | 0.8 µg/mL (≈ 1.06 µM) | 25 µg/mL (≈ 33.1 µM) | 0.8 µg/mL (≈ 1.06 µM) | 6.25 µg/mL (≈ 8.27 µM) | CO[C@@]1(NC(=O)[C@H](NC(=O)c2coc3cc(O)c(O)cc3c2=O)c2ccc(O)cc2)C(=O)N2C(C(=O)O)=C(CSc3nnc(CC(=O)O)o3)CS[C@@H]21 [Example 29, 7β-[D-2-(6,7-Dihydroxychromone-3-carboxamido)-2-(4-hydroxyphenyl)acetamido]-7α-methoxy-3-[5-carboxymethyl-2-(1,3,4-oxadiazolyl)]thiomethyl-3-cephem-4-carboxylic acid] | –
12 | ≤ 0.1 µg/mL | 12.5 µg/mL (≈ 16.3 µM) | 3.13 µg/mL (≈ 4.07 µM) | 0.8 µg/mL (≈ 1.04 µM) | 25 µg/mL (≈ 32.5 µM) | 0.4 µg/mL (≈ 0.52 µM) | 3.13 µg/mL (≈ 4.07 µM) | CO[C@@]1(NC(=O)[C@H](NC(=O)c2coc3cc(O)c(O)cc3c2=O)c2ccc(O)cc2)C(=O)N2C(C(=O)O)=C(CSc3nnnn3CCN(C)C)CS[C@@H]21 [Example 31, 7β-[D-2-(6,7-Dihydroxychromone-3-carboxamido)-2-(4-hydroxyphenyl)acetamido]-7α-methoxy-3-[1-[2-(N,N-dimethylamino)ethyl]-5-tetrazolyl]thiomethyl-3-cephem-4-carboxylic acid] | –
13 | ≤ 0.1 µg/mL | 3.13 µg/mL (≈ 4.31 µM) | 1.56 µg/mL (≈ 2.15 µM) | 0.4 µg/mL (≈ 0.551 µM) | 12.5 µg/mL (≈ 17.2 µM) | 0.2 µg/mL (≈ 0.276 µM) | 1.56 µg/mL (≈ 2.15 µM) | CCn1nnnc1SCC1=C(C(=O)O)N2C(=O)[C@](NC(=O)[C@H](NC(=O)c3coc4cc(O)c(O)cc4c3=O)c3ccc(O)cc3)(OC)[C@H]2SC1 [Example 32, 7β-[D-2-(6,7-Dihydroxychromone-3-carboxamido)-2-(4-hydroxyphenyl)acetamido]-7α-methoxy-3-(1-ethyl-5-tetrazolyl)thiomethyl-3-cephem-4-carboxylic acid] | –
14 | ≤ 0.1 µg/mL | 6.25 µg/mL (≈ 8.76 µM) | 1.56 µg/mL (≈ 2.19 µM) | 0.4 µg/mL (≈ 0.56 µM) | 25 µg/mL (≈ 35 µM) | 0.2 µg/mL (≈ 0.28 µM) | 1.56 µg/mL (≈ 2.19 µM) | CO[C@@]1(NC(=O)[C@H](NC(=O)c2coc3cc(O)c(O)cc3c2=O)c2ccc(O)cc2)C(=O)N2C(C(=O)O)=C(CSc3nncs3)CS[C@@H]21 [Example 33, 7β-[D-2-(6,7-Dihydroxychromone-3-carboxamido)-2-(4-hydroxyphenyl)acetamido]-7α-methoxy-3-[2-(1,3,4-thiadiazolyl)]thiomethyl-3-cephem-4-carboxylic acid] | –
